Results on 24 molecules are retold here after ChEMBL document CHEMBL1142448, “Design and synthesis of 6-phenylnicotinamide derivatives as antagonists of TRPV1” (Bioorg Med Chem Lett, 2008).

Data set [1] concerns the target T1, Transient receptor potential cation channel subfamily V member 1 (Homo sapiens, UniProt Q8NER1). The data set is described as follows: Antagonist activity at human TRPV1 expressed in human 1321N1 cells assessed as inhibition of capsaicin-induced calcium influx by FLIPR assay. It counts as functional, cell-based.
A short description of data set [2]: Intrinsic clearance in guinea pig liver microsomes. The data set is classed as ADME, Cavia porcellus, Microsome.
Another data set deals with Liver microsomes. The data set can be described thus: Intrinsic clearance in human liver microsomes. It counts as ADME, Microsome.
Data set [3] relates to Cavia porcellus. The data set is described as follows: Antihyperalgesic activity in guinea pig assessed as reversal of FCA-induced inflammatory pain at 30 mg/kg, sc. It counts as functional. Conditions: route subcutaneous.
A short description of data set [4]: Blood clearance in rat at 1 mg/kg, iv. The data set is classed as ADME, organism-based. Further details: dose 1 mg/kg, route intravenous. Conditions: whole blood.
Data set [5] in a line: Half life in rat at 1 mg/kg, iv. It counts as ADME, organism-based. The arrangement: dose 1 mg/kg, route intravenous. Conditions: in vivo.
For another data set, the target named is Cytochrome P450 3A4 (Homo sapiens, UniProt P08684). The data set can be described thus: Inhibition of CYP3A4. It counts as ADME.
Sequence of Cytochrome P450 3A4 (P08684 whole entry): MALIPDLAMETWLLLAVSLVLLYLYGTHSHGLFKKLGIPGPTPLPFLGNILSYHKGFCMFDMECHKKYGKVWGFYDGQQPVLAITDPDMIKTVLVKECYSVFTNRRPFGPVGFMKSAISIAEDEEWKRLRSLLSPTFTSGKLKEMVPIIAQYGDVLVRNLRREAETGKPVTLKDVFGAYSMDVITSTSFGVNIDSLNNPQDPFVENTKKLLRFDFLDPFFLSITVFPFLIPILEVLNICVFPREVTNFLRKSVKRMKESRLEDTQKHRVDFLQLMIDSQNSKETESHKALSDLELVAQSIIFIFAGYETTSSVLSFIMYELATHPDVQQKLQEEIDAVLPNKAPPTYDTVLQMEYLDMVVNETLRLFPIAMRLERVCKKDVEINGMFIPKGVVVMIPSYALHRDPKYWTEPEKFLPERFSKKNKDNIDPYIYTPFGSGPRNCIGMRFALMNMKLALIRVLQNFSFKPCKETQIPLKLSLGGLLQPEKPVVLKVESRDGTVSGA
Data set [6] concerns Cavia porcellus. The data set is described as follows: Antihyperalgesic activity in guinea pig assessed as reversal of FCA-induced inflammatory pain at 5 mg/kg, ip. It counts as functional. To be noted: route intraperitoneal.
Data set [7] addresses T1, Transient receptor potential cation channel subfamily V member 1. Conditions: HEK293.
Description: Antagonist activity at human TRPV1 expressed in HEK293 cells assessed as inhibition of capsaicin-induced calcium influx by FLIPR assay
For data set [8], the target named is Transient receptor potential cation channel subfamily V member 1 (Cavia porcellus, UniProt Q6R5A3). The data set is described as follows: Antagonist activity at guinea pig TRPV1 expressed in HEK293 cells assessed as inhibition of pH 5.3 acid-induced calcium influx by FLIPR assay. It counts as functional, cell-based.
Sequence of Transient receptor potential cation channel subfamily V member 1 (Cavia porcellus, UniProt Q6R5A3) (Q6R5A3 whole entry): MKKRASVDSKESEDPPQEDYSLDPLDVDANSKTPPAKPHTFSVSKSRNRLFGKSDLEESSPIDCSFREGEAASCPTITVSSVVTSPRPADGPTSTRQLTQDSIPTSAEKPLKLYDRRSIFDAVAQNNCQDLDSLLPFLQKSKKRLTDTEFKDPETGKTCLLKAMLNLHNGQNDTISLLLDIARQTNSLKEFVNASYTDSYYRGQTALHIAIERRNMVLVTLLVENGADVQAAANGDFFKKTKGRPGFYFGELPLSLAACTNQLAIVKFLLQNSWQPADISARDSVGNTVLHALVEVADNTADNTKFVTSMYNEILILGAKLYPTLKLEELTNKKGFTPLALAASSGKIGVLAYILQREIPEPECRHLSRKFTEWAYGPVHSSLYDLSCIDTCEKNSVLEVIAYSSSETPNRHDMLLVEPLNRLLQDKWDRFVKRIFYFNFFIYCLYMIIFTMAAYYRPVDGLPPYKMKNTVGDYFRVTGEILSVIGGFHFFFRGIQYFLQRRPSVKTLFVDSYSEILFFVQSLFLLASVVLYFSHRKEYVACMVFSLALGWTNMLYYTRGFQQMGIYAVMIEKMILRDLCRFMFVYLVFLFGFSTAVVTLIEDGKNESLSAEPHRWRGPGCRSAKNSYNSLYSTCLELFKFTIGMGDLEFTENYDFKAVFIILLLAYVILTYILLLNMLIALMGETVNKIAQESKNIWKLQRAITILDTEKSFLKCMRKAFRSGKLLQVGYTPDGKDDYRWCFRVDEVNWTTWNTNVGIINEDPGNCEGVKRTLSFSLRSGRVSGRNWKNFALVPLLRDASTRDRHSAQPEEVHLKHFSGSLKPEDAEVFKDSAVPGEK
In data set [9] the target is T1, Transient receptor potential cation channel subfamily V member 1. The data set is described as follows: Antagonist activity at human TRPV1 expressed in HEK293 cells assessed as inhibition of pH 5.3 acid-induced calcium influx by FLIPR assay. It counts as functional, cell-based.
The target is the same in data set [10]. The data set can be described thus: Antagonist activity at human TRPV1 expressed in HEK293 cells assessed as inhibition of pH 5.3 acid-induced calcium influx at 100 nM by whole cell patch clamp assay. The data set is classed as functional, cell-based. (In general: Patch clamp records ionic current or voltage across a cell membrane.)
The target is the same in data set [11]. The data set can be described thus: Antagonist activity at human TRPV1 expressed in HEK293 cells assessed as inhibition of pH 5.3 acid-induced calcium influx by whole cell patch clamp assay. The data set is classed as functional, cell-based.
Data set [12] deals with Transient receptor potential cation channel subfamily V member 1 (Rattus norvegicus) (UniProt O35433). To be noted: HEK293.
Sequence of Transient receptor potential cation channel subfamily V member 1 (Rattus norvegicus) (O35433 whole entry): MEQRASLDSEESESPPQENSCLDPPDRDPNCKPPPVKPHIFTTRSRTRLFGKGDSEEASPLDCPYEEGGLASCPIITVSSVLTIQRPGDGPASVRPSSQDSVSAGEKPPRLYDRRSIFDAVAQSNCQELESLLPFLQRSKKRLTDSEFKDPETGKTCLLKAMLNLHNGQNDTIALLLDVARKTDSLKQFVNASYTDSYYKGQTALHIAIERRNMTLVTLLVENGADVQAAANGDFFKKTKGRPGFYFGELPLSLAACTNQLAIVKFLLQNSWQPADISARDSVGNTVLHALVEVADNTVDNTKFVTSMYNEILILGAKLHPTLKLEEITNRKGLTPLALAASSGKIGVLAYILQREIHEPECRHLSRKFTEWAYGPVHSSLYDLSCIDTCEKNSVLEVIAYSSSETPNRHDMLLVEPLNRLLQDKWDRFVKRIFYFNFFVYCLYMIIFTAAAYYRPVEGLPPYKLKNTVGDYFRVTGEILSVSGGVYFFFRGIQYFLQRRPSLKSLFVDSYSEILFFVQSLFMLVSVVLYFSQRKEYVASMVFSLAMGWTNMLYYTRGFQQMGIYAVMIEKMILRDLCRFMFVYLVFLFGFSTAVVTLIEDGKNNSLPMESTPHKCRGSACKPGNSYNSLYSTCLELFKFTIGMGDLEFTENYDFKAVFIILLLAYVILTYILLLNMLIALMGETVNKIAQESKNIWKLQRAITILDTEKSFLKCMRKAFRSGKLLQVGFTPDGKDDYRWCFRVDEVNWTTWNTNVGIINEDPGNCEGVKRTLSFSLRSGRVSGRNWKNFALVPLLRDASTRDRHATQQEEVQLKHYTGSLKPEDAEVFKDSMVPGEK
Description: Antagonist activity at rat TRPV1 expressed in HEK293 cells assessed as inhibition of capsaicin-induced calcium influx by FLIPR assay
In data set [13] the target is Transient receptor potential cation channel subfamily V member 1 (Cavia porcellus) (UniProt Q6R5A3). Conditions: HEK293.
Sequence of Transient receptor potential cation channel subfamily V member 1 (Cavia porcellus) (Q6R5A3 whole entry): as the sequence (Q6R5A3 whole entry) above
Description: Antagonist activity at guinea pig TRPV1 expressed in HEK293 cells assessed as inhibition of capsaicin-induced calcium influx by FLIPR assay
The target in data set [14] is T1, Transient receptor potential cation channel subfamily V member 1. The data set is described as follows: Antagonist activity at human TRPV1 expressed in HEK293 cells assessed as inhibition of capsaicin-induced calcium influx by whole cell patch clamp assay. The data set is classed as functional, cell-based.
Data set [15] concerns the target Transient receptor potential cation channel subfamily V member 1 (Rattus norvegicus, UniProt O35433). The data set is described as follows: Antagonist activity at rat TRPV1 expressed in HEK293 cells assessed as inhibition of pH 5.3 acid-induced calcium influx by FLIPR assay. It counts as functional, cell-based.
The target of data set [16] is T1, Transient receptor potential cation channel subfamily V member 1. The data set is described as follows: Inhibition of human TRPV1 expressed in HEK293 cells assessed as reversible inhibition of heat-activated current at 1 uM by whole cell patch clamp assay relative to control. It counts as cell-based.
Data set [17] can be described thus: Oral bioavailability in guinea pig. It counts as ADME, organism-based, Cavia porcellus. Conditions: in vivo.
Data set [18] has as its target T1, Transient receptor potential cation channel subfamily V member 1. The data set is described as follows: Antagonist activity at human TRPV1 expressed in HEK293 cells assessed as inhibition of capsaicin-induced calcium influx at 1 uM by whole cell patch clamp assay. The data set is classed as functional, cell-based.
The species named for data set [19] is Cavia porcellus. The data set can be described thus: Antihyperalgesic activity against FCA-induced inflammatory pain in guinea pig assessed as paw withdrawal after 1 hr. It counts as functional.

Some results are limits rather than exact numbers.

T1 sequence (Q8NER1 whole entry): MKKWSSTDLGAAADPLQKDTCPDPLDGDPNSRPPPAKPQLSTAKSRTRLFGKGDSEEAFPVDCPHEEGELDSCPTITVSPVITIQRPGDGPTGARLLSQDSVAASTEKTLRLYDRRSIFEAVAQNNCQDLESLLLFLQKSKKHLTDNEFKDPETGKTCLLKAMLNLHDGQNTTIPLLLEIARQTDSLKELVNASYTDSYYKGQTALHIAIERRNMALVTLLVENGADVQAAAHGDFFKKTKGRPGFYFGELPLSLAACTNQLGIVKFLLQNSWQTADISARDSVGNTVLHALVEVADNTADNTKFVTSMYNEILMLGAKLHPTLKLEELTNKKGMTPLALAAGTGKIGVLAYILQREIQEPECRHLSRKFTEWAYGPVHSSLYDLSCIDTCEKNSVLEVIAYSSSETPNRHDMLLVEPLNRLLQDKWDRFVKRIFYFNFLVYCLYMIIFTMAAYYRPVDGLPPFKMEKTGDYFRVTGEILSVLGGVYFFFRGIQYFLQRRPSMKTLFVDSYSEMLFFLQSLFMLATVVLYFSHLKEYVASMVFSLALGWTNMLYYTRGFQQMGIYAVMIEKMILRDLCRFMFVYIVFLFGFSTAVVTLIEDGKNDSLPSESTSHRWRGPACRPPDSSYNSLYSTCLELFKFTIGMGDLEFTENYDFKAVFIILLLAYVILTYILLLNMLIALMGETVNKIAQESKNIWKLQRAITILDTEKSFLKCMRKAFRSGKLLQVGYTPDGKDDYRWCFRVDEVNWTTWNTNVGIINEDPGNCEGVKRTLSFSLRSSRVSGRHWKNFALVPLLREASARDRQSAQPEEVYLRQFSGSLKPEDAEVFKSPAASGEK
Sequence of Transient receptor potential cation channel subfamily V member 1 (Rattus norvegicus, UniProt O35433) (O35433 whole entry): as the sequence (O35433 whole entry) above

As a reminder, the pKb is the Kb on a negative log10 scale, so that one unit is a factor of ten. For `Cc1nc(-c2ccccc2)ccc1C(=O)Nc1ccc2cccnc2c1`, the pKb in data set [1] is 9.

As for `Cc1nc(-c2ccc(F)cc2)ccc1C(=O)Nc1ccc2ccn(C)c2c1`, the pKb in data set [1] was under 6.5.

For `Cc1nc(-c2ccc(F)cc2)ccc1C(=O)Nc1ccc2scnc2c1`, the pKb in [1] is 7.5.

With `O=C(Nc1ccc2cccnc2c1)c1ccc(-c2cccc(F)c2)nc1`, the pKb in [1] is 8.6.

In the case of `Cc1nc2ccc(NC(=O)c3ccc(-c4ccc(F)cc4)nc3C)cc2o1`, the pKb in data set [1] was under 6.7.

Turning to `O=C(Nc1ccc2cccnc2c1)c1ccc(-c2ccc(C(F)(F)F)cc2)nc1`, the pKb in data set [1] came to 7.3.

For `Cc1cc(-c2ccccc2)ncc1C(=O)Nc1ccc2cccnc2c1`, the pKb in data set [1] stood at 6.7.

For orientation: clearance means the volume of plasma or blood freed of the substance per unit of time. Usually half-life stands for how long it takes for the measured level to halve. A lower half-life goes with fast loss. With `O=C(Nc1ccc2cccnc2c1)c1ccc(-c2ccccc2)nc1`, the CL amounted to 3.9 mL/min/g in data set [2] and 3.1 mL/min/g in the data set with Liver microsomes. In addition, the Activity in the data set on Cavia porcellus [3] was 32%. This molecule also showed a clearance in data set [4] of 33 mL/min/kg. Further, the half-life in data set [5] is 21.6 min.

Turning to `O=C(Nc1ccc2cccnc2c1)c1ccc(-c2ccc(F)cc2)nc1`, the pKb in [1] came out at 8.2. In addition, the figures for the CL (in [2]; in the data set on Liver microsomes) were 42 mL/min/g and 1.7 mL/min/g, respectively.

On to `Cc1nc(-c2ccc(F)cc2)ccc1C(=O)Nc1ccc2nc[nH]c2c1`, for which, in [1], the pKb stood at 7.2.

As to `Cc1nc(-c2ccc(F)cc2)ccc1C(=O)Nc1ccc2sc(N(C)C)nc2c1`, the pKb in [1] is under 5.8.

As usually defined, the IC50 is the concentration that inhibits the measured activity by half. For `Cc1nc(-c2ccc(F)cc2)ccc1C(=O)Nc1ccc2cccnc2c1`, in [1], the pKb was found to be 8.5. Also, the IC50 on Cytochrome P450 3A4 was under 10000 nM. For the same molecule, the Activity in the data set on Cavia porcellus [6] came to 42%.

On to `N#Cc1ccc(C(=O)Nc2ccc3cccnc3c2)cn1`, for which, in [1], the pKb is under 6.7.

As for `Cc1nc(-c2ccc(F)cc2)ccc1C(=O)Nc1ccc2ncn(C)c2c1`, the pKb in [1] came to 6.7.

Consider `O=C(Nc1ccc2cccnc2c1)c1ccc(Cl)nc1`, for which the pKb in data set [1] is under 6.7.

As a reminder, the inhibition is the change of the read-out against control, counted positive when it falls. What is called bioavailability is the share of a dose that reaches the circulation, judged against a reference dose that is usually intravenous. The ED50 is the dose that gives a 50% effect, or the effect in half of the subjects. Turning to `Cc1nc2cc(NC(=O)c3ccc(-c4ccc(F)cc4)nc3C)ccc2s1`, the pKb worked out at 7.4 in [1], 7.2 in data set [7], 7 in data set [12] and 7.4 in data set [13]. In addition, the CL in data set [2] stood at 2.7 mL/min/g; in the data set on Liver microsomes, 2.2 mL/min/g. Also, the IC50 in data set [8] was 63.1 nM; in [9] it was 39.8 nM; in [11], 9 nM; in data set [14], 49 nM; in data set [15] it was 100 nM. Also, the inhibition in data set [10] is 96%; in data set [16], 87%; in data set [18], 100%. The values for the Activity with Cavia porcellus [6] and in the data set listed under Cavia porcellus [19] were 48% and 68%, respectively. For the same molecule, the bioavailability in data set [17] came to 24%. The ED50 in the data set filed under Cavia porcellus [19] (Cavia porcellus, 1 h) is 0.53 mg/kg.

Regarding `O=C(Nc1ccc2cccnc2c1)c1ccc(-c2ccc(Cl)cc2)nc1`, the pKb in [1] is 7.8.

Turning to `Cc1nc(-c2ccc(F)cc2)ccc1C(=O)Nc1ccc2cn[nH]c2c1`, the pKb in data set [1] is 7.5.

For the molecule `N#Cc1ccc(-c2ccc(C(=O)Nc3ccc4cccnc4c3)cn2)cc1`, the pKb in data set [1] is under 6.6.

As for `Cc1nc(-c2ccc(F)cc2)ccc1C(=O)Nc1ccc2c(C)n[nH]c2c1`, the pKb in data set [1] stood at 6.9.

As to `Cc1nc(-c2ccc(F)cc2)ccc1C(=O)Nc1ccc2ncsc2c1`, in data set [1], the pKb came out at 6.7.

For the molecule `Cc1nc2ccc(NC(=O)c3ccc(-c4ccc(F)cc4)nc3C)cc2[nH]1`, in data set [1], the pKb was found to be 6.

Turning to `O=C(Nc1ccc2cccnc2c1)c1ccc(-c2ccccc2F)nc1`, in data set [1], the pKb is 8.7.

Regarding `Cc1nc(-c2ccc(F)cc2)ccc1C(=O)Nc1ccc2sc(CN(C)C)nc2c1`, the negative-log Kb (pKb) in data set [1] is under 6.7.
